How the values were obtained:
Assay type in all cases: cell-based
p53 target genes = experiment: qRT-PCR of p53 target genes; details: U87 cells
Experimental: For most RNA experiments, RNA was isolated from cells using the Qiagen™ RNeasy minikit. Complementary DNA was generated using the Qiagen™ Quantitect™ reverse transcription kit with 0.5 μg of input RNA as measured with a NanoDrop spectrophotometer (Thermo Scientific™). Real-time PCR was carried out on an ABI StepOne Plus™ machine using power SYBR Green dye (Thermo Scientific™). Transcript levels were assayed in triplicate and normalized to RPL32 and HPS90 mRNAs. Relative changes in cDNA levels were calculated using the comparative Ct method (ΔΔCT method). All RT-qPCR primers were designed with Primer3Plus™ or retrieved from Primerbank™. Primer sequences are listed here, including in Table 3. All primers were purchased from Life Technologies™. H. Generation of p53 Knock Out U87 Cell Lines by CRISPR
This also is consistent with p53 activation. FIG. 27 presents RT-qPCR analysis of C9ORF72, CDKN1A (p21), NOXA, PUMA, GLUT1, MDM2 and GLUT3 mRNA levels in U87 cells treated with control (siCtrl) and C9 (siC9; SEQ ID NO:631) siRNA. These studies were performed using three biological replicates (n=3); error bars represent S.E.M. Statistical significance was assessed by an unpaired t-test: NS P>0.05, *P≤0.05, **P≤0.01, ***P≤0.001 ****P≤0.0001.

U87 cells [1] = experiment: β-Galactosidase staining (senescence)
Experimental: β-Galactosidase staining was performed using a Senescence™ β-Galactosidase Staining Kit (Cell Signaling™, #9860) and used according to manufacturer's instructions.
To confirm that cells undergo non-apoptotic death, apoptosis was blocked with a broad caspase inhibitor Z-VAD-FMK upon C9 KD. […] Additionally, the apoptosis inducer, staurosporine (STS), was used to asses Z-VAD-FMK efficacy. […] A beta galactosidase staining technique was used to asses senescence upon C9 KD. […] See FIG. 20, for which U87 cells were treated with control (siCtrl) and C9 (siC9; SEQ ID NO:631) siRNA and then subjected to β-Galactosidase Staining.

p53 null U87 cells = experiment: Western blot of PARP1, p-ERK, γ-H2AX in p53 null U87 cells
Experimental: (§1) For Western blot analysis, cells were lysed with lysis buffer (20 mM sodium phosphate (pH 7.0), 250 mM NaCl, 30 mM sodium pyrophosphate, 0.1% Nonidet™ P-40, 5 mM EDTA, 10 mM NaF, 0.1 mM Na3VO4, and 1 mM PMSF) supplemented with complete protease inhibitors (Roche™) and homogenized by passage through a 28 gauge needle. Protein concentration was measured with a Bio-Rad™ protein assay dye reagent and results were read using a spectrophotometer (BiophotometerPlus™ by Eppendorf™). Protein extracts were resolved by SDS PAGE on gradient (Thermo Fisher™) or 12% gels. Proteins were then electrotransferred at 350 mA for 80 minutes onto a PVDF membrane (Immobilon-P PVDF). Membranes were blocked with PBST with 5% milk and 1% BSA for 30 minutes. Quantitation of blots was performed Image Studio Lite software (LI-COR Biosciences™).
In addition, C9 was knocked down with two independent siRNAs in p53 null U87 cells to investigate the role of p53 in the viability of the cells.
See FIG. 37, a WB of p53 null U87 cells (KO #4) treated with control and C9 siRNA and showing levels of PARP1, p-ERK, γ-H2AX. Actin was used as a loading control.

C9 = C9 knock down efficiency by western blot; details: U87 cells, vs control siRNA
Experimental: For siRNA knockdown experiments, siRNAs targeting C9 mRNA were designed with the Whitehead website (sirna.wi.mit.edu) and with RNAxs webserver (rna.tbi.univie.ac.at/cgi-bin/RNAxs). All siRNAs were obtained from GenePharma™. Lipofectamine RNAiMAX (Thermo Scientific™) was used as the transfection reagent for all siRNA experiments (according to the manufacturer's instructions). siRNA concentration was 40 nM per 60 mm plate. After 6 hours, media was changed and cells were treated again with siRNA after 48 hours. For RNA and protein analysis, cells were harvested after 48 hours following the second treatment. All KD experiments were performed in three biological replicates. The siRNA sequences were as follows: […] (SEQ ID NO:631; sense) and […] […]
as §1, with “Protein extracts were resolved by SDS PAGE on gradient (Thermo Fisher™) or 12% gels. Proteins were then electrotransferred at 350 mA for 80 minutes onto a PVDF membrane (Immobilon-P PVDF). Membranes were blocked with PBST with 5% milk and 1% BSA for 30 minutes.” left out, “Biosciences™). […]” for “Biosciences™).”

U87 cells [2] = experiment: Dextran measurement of macropinocytosis; details: fluorescein dextran
Experimental: U87 cells were treated with control and C9 siRNA for a total of 3 days. At day 2, cells were treated with a final concentration of 20 μM dextran and incubased overnight. On day 3, cells were washed with phenol red-free DMEM and then imaged using excitation/emission for fluorescein (494/521) on an LSM 700; Carl Zeiss™ microscope.
In this study, a fluid phase marker, fluorescein dextran, was added to the media. If the vacuoles are macropinosomes, the marker will be taken up and internalized, resulting in green fluorescent macropinocytosis.
The right images are a merge between the left and middle images. The scale bar represents 10 μm. White arrows indicate the position of vacuoles. In FIG. 8, the upper panels are fluorescent images (Alexa™ 488) of U87 cells treated with control (siCtrl) and C9 (siC9; SEQ ID NO:631) siRNA as indicated incubated in fluorescein dextran (green). The lower panels are the same cells imaged in phase contrast.

siC9: siRNA targeting C9 mRNA: UUAAUGAAACAAUAAUCACUC (SEQ ID NO:631; sense) and GUGAUUAUUGUUUCAUUAAUC (SEQ ID NO:632; antisense) (listed as RNA, chemistry not given here)
mRNA levels of p53 target genes (p21, MDM2, NOXA, PUMA) (p53 target genes): elevated
mRNA levels of repression targets (GLUT1 and GLUT3) (p53 target genes): lower mRNA levels
nucleus and cell size (U87 cells [1]): increase in both nucleus and cell size
β-galactosidase staining (senescence) (U87 cells [1]): did not stain with the assay
PARP1 protein (p53 null U87 cells; p53 KO U87 cells): PARP downregulation occurred without the presence of p53
ERK and γ-H2AX phosphorylation (p53 null U87 cells; p53 null U87 cells (KO #4)): increased ERK and γ-H2AX phosphorylation
C9 expression (western blot) (C9): reduced expression compared to control
dextran in vacuoles (U87 cells [2]): formation of vacuoles filled with dextran
